± gives the standard deviation of the averaged measurements.
Key:
[1] = system: Danio rerio embryo; experiment: EC20 Yolk sac size_Increase; higher = less potent; details: exposure time: 4 dpf
Description: (§1)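 Zebrafish embryos (UFZ-OBI strain) were exposed from 2 hpf for 48 h (2 dpf) or 96 h (4 dpf) at 28 °C; spontaneous tail coiling was scored at 25 hpf. Morphological features from automated image analysis (FishInspector), heart rate and locomotor response were fitted with drc models. Quantal endpoints were dichotomised at 2.5 SD from controls and fitted with a log-logistic model; heart rate, pigmentation and STC were normalised to the replicate control mean. Betamethasone was tested as betamethasone dipropionate, diflorasone as diflorasone diacetate.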

[2] = system: Danio rerio embryo; experiment: EC20 Body length_Decrease; higher = less potent
Description: as §1

[3] = system: Danio rerio embryo; experiment: EC20 Any effect; higher = less potent
Description: as §1

[4] = system: Danio rerio embryo; experiment: EC10 Pericard size_Increase; higher = less potent
Description: as §1

[5] = system: Danio rerio embryo; experiment: EC20 LMR dark; higher = less potent; details: exposure time: 4 dpf
Description: as §1

[6] = system: Danio rerio embryo; experiment: EC50 Otolith-eye distance_Decrease; details: exposure time: 4 dpf
Description: as §1

[7] = system: Danio rerio embryo; experiment: EC50 Curvature_Increase; details: exposure time: 2 dpf
Description: as §1

[8] = system: Danio rerio embryo; experiment: EC10 LMR dark; higher = less potent; details: exposure time: 4 dpf
Description: as §1

[9] = system: Danio rerio embryo; experiment: EC20 Pericard size_Increase; higher = less potent
Description: as §1

[10] = system: Danio rerio embryo; experiment: EC10 Otolith-eye distance_Decrease; higher = less potent; details: exposure time: 4 dpf
Description: as §1

[11] = system: Danio rerio embryo; experiment: EC10 Curvature_Increase; higher = less potent; details: exposure time: 2 dpf
Description: as §1

[12] = system: Danio rerio embryo
Description: as §1

[13] = system: Danio rerio embryo; experiment: EC20 Eye-jaw distance_Decrease; higher = less potent; details: exposure time: 4 dpf
Description: as §1

[14] = system: Danio rerio embryo; experiment: EC20 Bladder size_Decrease; higher = less potent; details: exposure time: 4 dpf
Description: as §1

[15] = system: Danio rerio embryo; experiment: EC20 Otolith-eye distance_Decrease; higher = less potent; details: exposure time: 4 dpf
Description: as §1

[16] = system: Danio rerio embryo; experiment: EC10 Bladder size_Decrease; higher = less potent; details: exposure time: 4 dpf
Description: as §1

[17] = system: Danio rerio embryo; experiment: EC20 Curvature_Increase; higher = less potent; details: exposure time: 2 dpf
Description: as §1

[18] = system: Danio rerio embryo; experiment: EC50 Pericard size_Increase
Description: as §1

[19] = system: Danio rerio embryo; experiment: EC50 Body length_Decrease
Description: as §1

[20] = system: Danio rerio embryo; experiment: EC50 Yolk sac size_Increase; details: exposure time: 4 dpf
Description: as §1

[21] = system: Danio rerio embryo; experiment: EC10 Body length_Decrease; higher = less potent
Description: as §1

[22] = system: Danio rerio embryo; details: exposure time: 4 dpf
Description: as §1

[23] = system: Danio rerio embryo; experiment: EC10 Any effect; higher = less potent
Description: as §1

[24] = system: Danio rerio embryo; experiment: spontaneous tail coiling frequency (coils/min/embryo); higher = more spontaneous movement; details: 25 hpf
Description: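 Spontaneous tail coilings of zebrafish embryos exposed from 2 hpf were recorded at 24-25 hpf in 1-min videos and detected by a KNIME workflow from grey-value variance. Betamethasone was tested as the dipropionate, diflorasone as the diacetate.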

[25] = system: Danio rerio embryo; experiment: EC10 Yolk sac size_Increase; higher = less potent; details: exposure time: 4 dpf
Description: as §1

[26] = system: Danio rerio embryo; experiment: EC50 Eye-jaw distance_Decrease; details: exposure time: 4 dpf
Description: as §1

[27] = system: Danio rerio embryo; experiment: EC50 Bladder size_Decrease; details: exposure time: 4 dpf
Description: as §1

[28] = system: Danio rerio embryo; experiment: EC10 Eye-jaw distance_Decrease; higher = less potent; details: exposure time: 4 dpf
Description: as §1

CSc1nc2cc(Cl)c(Oc3cccc(Cl)c3Cl)cc2[nH]1 [Triclabendazole]
Details | EC10 Bladder size Decrease [nM] | EC10 Curvature Increase [nM] | EC10 Eye-jaw distance Decrease [nM] | EC10 LMR dark [nM] | EC10 Otolith-eye distance Decrease [nM] | EC10 Yolk sac size Increase [nM] | EC20 Bladder size Decrease [nM] | EC20 Curvature Increase [nM] | EC20 Eye-jaw distance Decrease [nM] | EC20 LMR dark [nM] | EC20 Otolith-eye distance Decrease [nM] | EC20 Yolk sac size Increase [nM] | EC50 Bladder size Decrease [nM] | EC50 Curvature Increase [nM] | EC50 Eye-jaw distance Decrease [nM] | EC50 LMR dark [nM] | EC50 Otolith-eye distance Decrease [nM] | EC50 Yolk sac size Increase [nM]
[1] | – | – | – | – | – | – | – | – | – | – | – | 533 | – | – | – | – | – | –
[5] | – | – | – | – | – | – | – | – | – | 240 | – | – | – | – | – | – | – | –
[6] | – | – | – | – | – | – | – | – | – | – | – | – | – | – | – | – | 796 | –
[7] | – | – | – | – | – | – | – | – | – | – | – | – | – | 1980 | – | – | – | –
[8] | – | – | – | 178 | – | – | – | – | – | – | – | – | – | – | – | – | – | –
[10] | – | – | – | – | 538 | – | – | – | – | – | – | – | – | – | – | – | – | –
[11] | – | 1710 | – | – | – | – | – | – | – | – | – | – | – | – | – | – | – | –
[13] | – | – | – | – | – | – | – | – | 708 | – | – | – | – | – | – | – | – | –
[14] | – | – | – | – | – | – | 475 | – | – | – | – | – | – | – | – | – | – | –
[15] | – | – | – | – | – | – | – | – | – | – | 622 | – | – | – | – | – | – | –
[16] | 462 | – | – | – | – | – | – | – | – | – | – | – | – | – | – | – | – | –
[17] | – | – | – | – | – | – | – | 1810 | – | – | – | – | – | – | – | – | – | –
[20] | – | – | – | – | – | – | – | – | – | – | – | – | – | – | – | – | – | 691
[22] | – | – | – | – | – | – | – | – | – | – | – | – | – | – | – | 403 | – | –
[25] | – | – | – | – | – | 458 | – | – | – | – | – | – | – | – | – | – | – | –
[26] | – | – | – | – | – | – | – | – | – | – | – | – | – | – | 731 | – | – | –
[27] | – | – | – | – | – | – | – | – | – | – | – | – | 497 | – | – | – | – | –
[28] | – | – | 695 | – | – | – | – | – | – | – | – | – | – | – | – | – | – | –

Details | EC10 Any effect [nM] | EC10 Body length Decrease [nM] | EC10 Pericard size Increase [nM] | EC20 Any effect [nM] | EC20 Body length Decrease [nM] | EC20 Pericard size Increase [nM] | EC50 Any effect [nM] | EC50 Body length Decrease [nM] | EC50 Pericard size Increase [nM] | EC50 Pigmentation increase [nM] | EC50 STC decrease [nM] | spontaneous tail coiling frequency
[2], exposure time: 2 dpf | – | – | – | – | 850 | – | – | – | – | – | – | –
[2], exposure time: 4 dpf | – | – | – | – | 738 | – | – | – | – | – | – | –
[3], exposure time: 2 dpf | – | – | – | 1040 | – | – | – | – | – | – | – | –
[3], exposure time: 4 dpf | – | – | – | 411 | – | – | – | – | – | – | – | –
[4], exposure time: 2 dpf | – | – | 651 | – | – | – | – | – | – | – | – | –
[4], exposure time: 4 dpf | – | – | 772 | – | – | – | – | – | – | – | – | –
[9], exposure time: 2 dpf | – | – | – | – | – | 1010 | – | – | – | – | – | –
[9], exposure time: 4 dpf | – | – | – | – | – | 775 | – | – | – | – | – | –
[12], exposure time: 2 dpf | – | – | – | – | – | – | 1340 | – | – | – | – | –
[12], exposure time: 4 dpf | – | – | – | – | – | – | 556 | – | – | 690 | – | –
[12], exposure time: 25 h | – | – | – | – | – | – | – | – | – | – | 76 | –
[18], exposure time: 2 dpf | – | – | – | – | – | – | – | – | 2140 | – | – | –
[18], exposure time: 4 dpf | – | – | – | – | – | – | – | – | 782 | – | – | –
[19], exposure time: 2 dpf | – | – | – | – | – | – | – | 1270 | – | – | – | –
[19], exposure time: 4 dpf | – | – | – | – | – | – | – | 1090 | – | – | – | –
[21], exposure time: 2 dpf | – | 672 | – | – | – | – | – | – | – | – | – | –
[21], exposure time: 4 dpf | – | 586 | – | – | – | – | – | – | – | – | – | –
[23], exposure time: 2 dpf | 893 | – | – | – | – | – | – | – | – | – | – | –
[23], exposure time: 4 dpf | 344 | – | – | – | – | – | – | – | – | – | – | –
[24], 0.139 µM | – | – | – | – | – | – | – | – | – | – | – | 0.65
[24], 0.488205 µM | – | – | – | – | – | – | – | – | – | – | – | 1.35
[24], 0.577 µM | – | – | – | – | – | – | – | – | – | – | – | 1.03
[24], 0.732308 µM | – | – | – | – | – | – | – | – | – | – | – | 1.05
[24], 0.835 µM | – | – | – | – | – | – | – | – | – | – | – | 1.49 ± 0.096
[24], 1.086 µM | – | – | – | – | – | – | – | – | – | – | – | 1.13
[24], 1.09846 µM | – | – | – | – | – | – | – | – | – | – | – | 0.655
[24], 1.412 µM | – | – | – | – | – | – | – | – | – | – | – | 0.667 ± 0.38
[24], 1.64769 µM | – | – | – | – | – | – | – | – | – | – | – | 1.2
[24], 1.835 µM | – | – | – | – | – | – | – | – | – | – | – | 0.75 ± 0.38
[24], 2.386 µM | – | – | – | – | – | – | – | – | – | – | – | 0.583 ± 0.35
[24], 2.47154 µM | – | – | – | – | – | – | – | – | – | – | – | 0.315
[24], 3.70731 µM | – | – | – | – | – | – | – | – | – | – | – | 0.06
